How the values were obtained:
Assay in all cases: Synergy assay, checkerboard method
K. pneumoniae LMG20218 = details: for FICI: synergistic ≤0.5; for MIC of antibiotic at brevibacillin 0 mg/L / MIC of antibiotic at brevibacillin 2V 0 mg/L / MIC of antibiotic at brevibacillin I 0 mg/L / MIC of antibiotic at brevibacillin V 0 mg/L: checkerboard, 5 × 10^5 cfu/ml, 37°C, 20 h, antibiotic alone
Protocol: (§1) Briefly, antibiotics were diluted in twofold series, while brevibacillins were added at a certain final concentration of 1, 2, or 4 mg/L. Indicator strains were added at a final concentration of 5 × 10^5 cfu/ml. After incubation at 37°C for 20 h, the OD600 of plates was determined. The fractional inhibitory concentration index (FICI) was calculated using the following formula: FICI = (MIC compound A in combination with B / MIC compound A) + (MIC compound B in combination with A / MIC compound B).

P. aeruginosa LMG6395 = details: for FICI: synergistic ≤0.5; for MIC of antibiotic at brevibacillin 0 mg/L / MIC of antibiotic at brevibacillin 2V 0 mg/L / MIC of antibiotic at brevibacillin I 0 mg/L / MIC of antibiotic at brevibacillin V 0 mg/L: checkerboard, 5 × 10^5 cfu/ml, 37°C, 20 h, antibiotic alone
Protocol: as §1

A. baumannii ATCC17978 = details: for FICI / MIC of antibiotic at brevibacillin 0 mg/L / MIC of antibiotic at brevibacillin 2V 0 mg/L / MIC of antibiotic at brevibacillin I 0 mg/L / MIC of antibiotic at brevibacillin V 0 mg/L: A. baumannii ATCC17978; for FICI: synergistic ≤0.5; for MIC of antibiotic at brevibacillin 0 mg/L / MIC of antibiotic at brevibacillin 2V 0 mg/L / MIC of antibiotic at brevibacillin I 0 mg/L / MIC of antibiotic at brevibacillin V 0 mg/L: checkerboard, 5 × 10^5 cfu/ml, 37°C, 20 h, antibiotic alone
Protocol: as §1

E. coli ATCC 25922 = details: for FICI: synergistic ≤0.5; for MIC of antibiotic at brevibacillin 0 mg/L / MIC of antibiotic at brevibacillin 2V 0 mg/L / MIC of antibiotic at brevibacillin I 0 mg/L / MIC of antibiotic at brevibacillin V 0 mg/L: checkerboard, 5 × 10^5 cfu/ml, 37°C, 20 h, antibiotic alone
Protocol: as §1

[1] = antibiotic + brevibacillin 2V, E. coli ATCC 25922
[2] = antibiotic + brevibacillin I, E.coli ATCC 25922
[3] = antibiotic + brevibacillin V, E.coli ATCC 25922
[4] = antibiotic + brevibacillin, E.coli ATCC 25922

Compound | FICI (K. pneumoniae LMG20218; antibiotic + brevibacillin 2V) | FICI (K. pneumoniae LMG20218; antibiotic + brevibacillin I) | FICI (K. pneumoniae LMG20218; antibiotic + brevibacillin V) | FICI (K. pneumoniae LMG20218; antibiotic + brevibacillin) | MIC of antibiotic at brevibacillin 0 mg/L (K. pneumoniae LMG20218) [µg/mL] | MIC of antibiotic at brevibacillin 2V 0 mg/L (K. pneumoniae LMG20218) [µg/mL] | MIC of antibiotic at brevibacillin I 0 mg/L (K. pneumoniae LMG20218) [µg/mL] | MIC of antibiotic at brevibacillin V 0 mg/L (K. pneumoniae LMG20218) [µg/mL] | FICI (P. aeruginosa LMG6395; antibiotic + brevibacillin 2V) | FICI (P. aeruginosa LMG6395; antibiotic + brevibacillin I) | FICI (P. aeruginosa LMG6395; antibiotic + brevibacillin V) | FICI (P. aeruginosa LMG6395; antibiotic + brevibacillin) | MIC of antibiotic at brevibacillin 0 mg/L (P. aeruginosa LMG6395) [µg/mL] | MIC of antibiotic at brevibacillin 2V 0 mg/L (P. aeruginosa LMG6395) [µg/mL] | MIC of antibiotic at brevibacillin I 0 mg/L (P. aeruginosa LMG6395) [µg/mL] | MIC of antibiotic at brevibacillin V 0 mg/L (P. aeruginosa LMG6395) [µg/mL] | FICI (A. baumannii ATCC17978; antibiotic + brevibacillin 2V) | FICI (A. baumannii ATCC17978; antibiotic + brevibacillin I) | FICI (A. baumannii ATCC17978; antibiotic + brevibacillin V) | FICI (A. baumannii ATCC17978; antibiotic + brevibacillin) | further results
NCC[C@H](O)C(=O)N[C@@H]1C[C@H](N)[C@@H](O[C@H]2O[C@H](CN)[C@@H](O)[C@H](O)[C@H]2O)[C@H](O)[C@H]1O[C@H]1O[C@H](CO)[C@@H](O)[C@H](N)[C@H]1O [Amikacin] | 0.563 | 0.563 | 1.016 | 1.031 | 0.5 | 0.5 | 0.5 | 0.5 | 0.266 | 0.266 | 0.266 | 0.266 | 2 | 2 | 2 | 2 | 0.141 | 0.078 | 0.094 | 0.094 | MIC of antibiotic at brevibacillin 0 mg/L (A. baumannii ATCC17978): 16 µg/mL; MIC of antibiotic at brevibacillin 2V 0 mg/L (A. baumannii ATCC17978): 16 µg/mL; MIC of antibiotic at brevibacillin I 0 mg/L (A. baumannii ATCC17978): 16 µg/mL; MIC of antibiotic at brevibacillin V 0 mg/L (A. baumannii ATCC17978): 16 µg/mL; decrease of MIC of amikacin against A. baumannii (A. baumannii ATCC17978; in the presence of 4 mg/L brevibacillins): 32–64 folds; FICI (E. coli ATCC 25922; [1]): 0.188; FICI (E. coli ATCC 25922; [2]): 0.281; FICI (E. coli ATCC 25922; [3]): 0.250; FICI (E. coli ATCC 25922; [4]): 0.156; MIC of antibiotic at brevibacillin 0 mg/L (E. coli ATCC 25922; E.coli ATCC 25922): 4 µg/mL; MIC of antibiotic at brevibacillin 2V 0 mg/L (E. coli ATCC 25922; E.coli ATCC 25922): 4 µg/mL; MIC of antibiotic at brevibacillin I 0 mg/L (E. coli ATCC 25922; E.coli ATCC 25922): 4 µg/mL; MIC of antibiotic at brevibacillin V 0 mg/L (E. coli ATCC 25922; E.coli ATCC 25922): 4 µg/mL
CC[C@H]1OC(=O)[C@H](C)[C@@H](O[C@H]2C[C@@](C)(OC)[C@@H](O)[C@H](C)O2)[C@H](C)[C@@H](O[C@@H]2O[C@H](C)C[C@H](N(C)C)[C@H]2O)[C@](C)(O)C[C@@H](C)CN(C)[C@H](C)[C@@H](O)[C@]1(C)O [Azithromycin] | 1.031 | 1.016 | 1.016 | 1.031 | 16 | 16 | 16 | 16 | 0.266 | 0.266 | 0.516 | 0.516 | 128 | 128 | 128 | 128 | 0.531 | 0.516 | 1.016 | 0.531 | MIC of antibiotic at brevibacillin 0 mg/L (A. baumannii ATCC17978): 16 µg/mL; MIC of antibiotic at brevibacillin 2V 0 mg/L (A. baumannii ATCC17978): 16 µg/mL; MIC of antibiotic at brevibacillin I 0 mg/L (A. baumannii ATCC17978): 16 µg/mL; MIC of antibiotic at brevibacillin V 0 mg/L (A. baumannii ATCC17978): 16 µg/mL; FICI (E. coli ATCC 25922; [1]): 0.281; FICI (E. coli ATCC 25922; [2]): 0.375; FICI (E. coli ATCC 25922; [3]): 0.563; FICI (E. coli ATCC 25922; [4]): 0.188; MIC of antibiotic at brevibacillin 0 mg/L (E. coli ATCC 25922; E.coli ATCC 25922): 2 µg/mL; MIC of antibiotic at brevibacillin 2V 0 mg/L (E. coli ATCC 25922; E.coli ATCC 25922): 2 µg/mL; MIC of antibiotic at brevibacillin I 0 mg/L (E. coli ATCC 25922; E.coli ATCC 25922): 2 µg/mL; MIC of antibiotic at brevibacillin V 0 mg/L (E. coli ATCC 25922; E.coli ATCC 25922): 2 µg/mL
CCn1cc(C(=O)O)c(=O)c2ccc(C)nc21 [Nalidixic acid] | 0.531 | 0.516 | 1.016 | 0.563 | 32 | 32 | 32 | 32 | 0.266 | 0.266 | 0.516 | 0.516 | 256 | 256 | 256 | 256 | 0.531 | 0.516 | 1.016 | 0.625 | MIC of antibiotic at brevibacillin 0 mg/L (A. baumannii ATCC17978): 32 µg/mL; MIC of antibiotic at brevibacillin 2V 0 mg/L (A. baumannii ATCC17978): 32 µg/mL; MIC of antibiotic at brevibacillin I 0 mg/L (A. baumannii ATCC17978): 32 µg/mL; MIC of antibiotic at brevibacillin V 0 mg/L (A. baumannii ATCC17978): 32 µg/mL; FICI (E. coli ATCC 25922; [1]): 0.313; FICI (E. coli ATCC 25922; [2]): 0.313; FICI (E. coli ATCC 25922; [3]): 0.375; FICI (E. coli ATCC 25922; [4]): 0.375; MIC of antibiotic at brevibacillin 0 mg/L (E. coli ATCC 25922; E.coli ATCC 25922): 2 µg/mL; MIC of antibiotic at brevibacillin 2V 0 mg/L (E. coli ATCC 25922; E.coli ATCC 25922): 2 µg/mL; MIC of antibiotic at brevibacillin I 0 mg/L (E. coli ATCC 25922; E.coli ATCC 25922): 2 µg/mL; MIC of antibiotic at brevibacillin V 0 mg/L (E. coli ATCC 25922; E.coli ATCC 25922): 2 µg/mL
